biological target: T1, Phenylethanolamine N-methyltransferase (Bos taurus, UniProt P10938); assay: In vitro inhibitory activity measured against bovine adrenal phenylethanolamine N-methyltransferase(PNMT)
T1 sequence (P10938 whole entry): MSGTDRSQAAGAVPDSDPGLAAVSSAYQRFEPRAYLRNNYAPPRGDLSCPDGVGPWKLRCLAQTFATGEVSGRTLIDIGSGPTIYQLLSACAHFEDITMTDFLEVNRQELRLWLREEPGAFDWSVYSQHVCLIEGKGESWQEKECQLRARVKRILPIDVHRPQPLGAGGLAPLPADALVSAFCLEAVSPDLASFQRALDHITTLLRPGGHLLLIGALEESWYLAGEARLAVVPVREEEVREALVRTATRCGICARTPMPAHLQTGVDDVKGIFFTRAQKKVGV

Going from `OCC1Cc2ccccc2CN1` (configuration not stated) to `CCC1Cc2ccccc2CN1` (configuration not stated), the Ki rises from 2.4 µM to 23.9 µM (10-fold). The first binds more tightly here.

Compared with `Clc1ccc2c(c1Cl)CNCC2`, `OCC1Cc2ccc(Cl)c(Cl)c2CN1` (configuration not stated) is 1.6-fold higher in Ki: 0.24 µM for the first, 0.38 µM for the second.

Going from `O=C(O)C1Cc2ccccc2CN1` (configuration not stated) to `NC(=O)C1Cc2ccccc2CN1` (configuration not stated), the Ki falls from over 2000 µM to 40.5 µM.

biological target: T1, Phenylethanolamine N-methyltransferase; assay: In vitro inhibitory activity measured against bovine adrenal phenylethanolamine N-methyltransferase(PNMT); Ki values determined at incubation times of 5, 10, 15, 20 and 30 min

`COC(=O)C1Cc2ccccc2CN1` (configuration not stated) was tested, and the Ki was 69.5 µM.

— ChEMBL document CHEMBL1124088, “Synthesis and evaluation of 3-substituted analogues of 1,2,3,4-tetrahydroisoquinoline as inhibitors of phenylethanolamine N-methyltransferase” (J Med Chem, 1988)
